Results reported in patent publication US20240325398A1, “COMBINATION THERAPIES” (Infinity Pharmaceuticals, Inc., priority 2014, published 2024).

Experiments:
HBL-1 = test: Combination study, ATPLite 72 h, dose matrix (Synergy Score, CI50); conditions: combination with Compound 1, 72 h
DOHH-2 = test: as above; conditions: combination with Compound 1, 72 h
Jeko-1 = test: as above; conditions: combination with Compound 1
KARPAS-299 = test: as above; conditions: combination with Compound 1
Farage = test: as above; conditions: combination with Compound 1; Farage; 72 h
OCI-Ly3 = test: as above; conditions: combination with Compound 1; OCI-Ly3; 72 h
Procedure: (§1) Cells are thawed from a liquid nitrogen preserved state. Once cells have been expanded and divide at their expected doubling times, screening begins. Cells are seeded in growth media in either black 1536-well or 384-well tissue culture treated plates. Cells are then equilibrated in assay plates via centrifugation and placed in incubators attached to the Dosing Modules at 37° C. for 24 hours before treatment. […] These Tzero (To) plates are read using ultra-sensitive luminescence on Envision plate readers (Perkin Elmer). Treated assay plates are incubated with compound for 72 hours. After 72 hours, plates are developed for endpoint analysis using ATPLite. All data points are collected via automated processes, quality controlled and analyzed using Zalicus software.
(§2) where T is treated cell count and V is untreated (vehicle) cell count (at 72 hours). I ranges from 0% (when T=V) to 100% (when T=0). […] The measure of effect in the experiment can be the inhibition of cellular response relative to the untreated level (vehicle alone). […] The inhibition ranges from 0% at the untreated level to 100% when T=0. Inhibition levels are negative for agents that actually increase levels. Other effect measures, such as an activity ratio r=T/V may be more appropriate for some assays. When activity ratios (e.g, fold increase over stimulated control) are being used, the effect can be measured using an induction 1=ln(T/V). With this definition, all effect expressions are the same as for inhibition.
(§3) Growth Inhibition (GI) is used as a measure of cell viability. […] A GI reading of 100% represents complete growth inhibition—T72 compound-treated and T0 vehicle signals are matched. […] A GI reading of 200% represents complete death of all cells in the culture well. Compounds reaching an activity plateau of GI 200% are considered cytotoxic. GI is calculated by applying the following test and equation:
(§4) Combination analysis data were collected in a 6×6 dose matrix. Synergy is calculated by comparing a combination's response to those of its single compound, against the drug-with-itself dose-additive reference model. Deviations from dose additivity may be assessed visually on an isobologram or numerically with a Combination Index (CI). […] Additive effect is CI=1.0. […] Antagonistic effect is CI>1.0.
(§5) To measure combination effects in excess of Loewe additivity, a scalar measure to characterize the strength of synergistic interaction termed the Synergy Score is devised. The Synergy Score is calculated as:
(§6) The fractional inhibition for each component agent and combination point in the matrix is calculated relative to the median of all vehicle-treated control wells. The Synergy Score equation integrates the experimentally-observed activity volume at each point in the matrix in excess of a model surface numerically derived from the activity of the component agents using the Loewe model for additivity. Additional terms in the Synergy Score equation (above) are used to normalize for various dilution factors used for individual agents and to allow for comparison of synergy scores across an entire experiment. The inclusion of positive inhibition gating or an Idata multiplier removes noise near the zero effect level, and biases results for synergistic interactions at that occur at high activity levels.
Loewe Volume (Loewe Vol) is used to assess the overall magnitude of the combination interaction in excess of the Loewe additivity model. Loewe Volume is particularly useful when distinguishing synergistic increases in a phenotypic activity (positive Loewe Volume) versus synergistic antagonisms (negative Loewe Volume). […] This model defines additivity as a non-synergistic combination interaction where the combination dose matrix surface should be indistinguishable from either drug crossed with itself. The calculation for Loewe additivity is:

Mino = test: as above; conditions: combination with Compound 1
SU-DHL-4-epst = test: as above; conditions: combination with Compound 1, 72 h
KARPAS-422 = test: as above; conditions: combination with Compound 1, 72 h
U-2932 = test: as above; conditions: combination with Compound 1, 72 h
GRANTA-519 = test: as above; conditions: combination with Compound 1
OMP-2 = test: as above; conditions: combination with Compound 1; OPM-2
[1] = as above; conditions: combination with Compound 1; OPM-2
RPMI-8226 = test: as above; conditions: combination with Compound 1
Procedure: as §1, §2, §3, §4, §5, §6
(§7) Loewe Volume (Loewe Vol) is used to assess the overall magnitude of the combination interaction in excess of the Loewe additivity model. Loewe Volume is particularly useful when distinguishing synergistic increases in a phenotypic activity (positive Loewe Volume) versus synergistic antagonisms (negative Loewe Volume). […] This model defines additivity as a non-synergistic combination interaction where the combination dose matrix surface should be indistinguishable from either drug crossed with itself.

RL = test: as above; conditions: combination with Compound 1, 72 h
OCI-Ly7 = test: as above; conditions: combination with Compound 1, 72 h
HH = test: as above; assay type: cell-based; conditions: combination with Compound 1
Procedure: The method is described as follows.
Additive effect is CI=1.0. […] Antagonistic effect is CI>1.0.
The Synergy Score is calculated as: […]

TMD8 = test: as above; conditions: combination with Compound 1; TMD8; 72 h
WSU-NHL = test: as above; conditions: combination with Compound 1, 72 h
SU-DHL-10-epst = test: as above; conditions: combination with Compound 1, 72 h
NCI-H929 = test: as above; conditions: combination with Compound 1
Procedure: as §1, §2, §3, §4, §5, §6, §7

CN1CCc2c(c3ccccc3n2Cc2ccc(C(=O)NO)cc2)C1.Cl [Tubastatin A hydrochloride]
CI50 growth inhibition (HBL-1): U (U=0.7 to <1) | CI50 inhibition (HBL-1): W (W=≥1) | Synergy Score growth inhibition (HBL-1): A2 (A2=1 to <3) | Synergy Score inhibition (HBL-1): A1 (A1=0.0001 to <1) | CI50 growth inhibition (DOHH-2): T (T=0.5 to <0.7) | CI50 inhibition (DOHH-2): T (T=0.5 to <0.7) | Synergy Score growth inhibition (DOHH-2): A3 (A3=>3) | Synergy Score inhibition (DOHH-2): A2 (A2=1 to <3) | CI50 growth inhibition (Jeko-1): W (W=≥1) | CI50 inhibition (Jeko-1): W (W=≥1) | Synergy Score growth inhibition (Jeko-1): A1 (A1=0.0001 to <1) | Synergy Score inhibition (Jeko-1): A1 (A1=0.0001 to <1) | Synergy Score growth inhibition (KARPAS-299): A1 (A1=0.0001 to <1) | Synergy Score inhibition (KARPAS-299): A1 (A1=0.0001 to <1) | CI50 growth inhibition (Farage): S (S=0.01 to <0.5) | CI50 inhibition (Farage): T (T=0.5 to <0.7) | Synergy Score growth inhibition (Farage): A3 (A3=>3) | Synergy Score inhibition (Farage): A2 (A2=1 to <3) | CI50 growth inhibition (OCI-Ly3): U (U=0.7 to <1) | CI50 inhibition (OCI-Ly3): W (W=≥1) | Synergy Score growth inhibition (OCI-Ly3): A2 (A2=1 to <3) | Synergy Score inhibition (OCI-Ly3): A1 (A1=0.0001 to <1) | CI50 growth inhibition (Mino): U (U=0.7 to <1) | CI50 inhibition (Mino): U (U=0.7 to <1) | Synergy Score growth inhibition (Mino): A2 (A2=1 to <3) | Synergy Score inhibition (Mino): A1 (A1=0.0001 to <1) | CI50 growth inhibition (SU-DHL-4-epst): T (T=0.5 to <0.7) | CI50 inhibition (SU-DHL-4-epst): S (S=0.01 to <0.5) | Synergy Score growth inhibition (SU-DHL-4-epst): A3 (A3=>3) | Synergy Score inhibition (SU-DHL-4-epst): A2 (A2=1 to <3) | Synergy Score growth inhibition (KARPAS-422): A1 (A1=0.0001 to <1) | Synergy Score inhibition (KARPAS-422): A1 (A1=0.0001 to <1) | CI50 growth inhibition (U-2932): U (U=0.7 to <1) | Synergy Score growth inhibition (U-2932): A1 (A1=0.0001 to <1) | Synergy Score inhibition (U-2932): A1 (A1=0.0001 to <1) | CI50 growth inhibition (GRANTA-519): S (S=0.01 to <0.5) | CI50 inhibition (GRANTA-519): W (W=≥1) | Synergy Score growth inhibition (GRANTA-519): A2 (A2=1 to <3) | Synergy Score inhibition (GRANTA-519): A1 (A1=0.0001 to <1) | Synergy Score growth inhibition (OMP-2): A1 (A1=0.0001 to <1) | Synergy Score inhibition (OMP-2): A1 (A1=0.0001 to <1) | CI50 growth inhibition [1]: W (W=≥1) | CI50 growth inhibition (RPMI-8226): U (U=0.7 to <1) | CI50 inhibition (RPMI-8226): U (U=0.7 to <1) | Synergy Score growth inhibition (RPMI-8226): A2 (A2=1 to <3) | Synergy Score inhibition (RPMI-8226): A1 (A1=0.0001 to <1) | CI50 growth inhibition (RL): W (W=≥1) | CI50 inhibition (RL): W (W=≥1) | Synergy Score growth inhibition (RL): A2 (A2=1 to <3) | Synergy Score inhibition (RL): A2 (A2=1 to <3) | CI50 growth inhibition (OCI-Ly7): S (S=0.01 to <0.5) | CI50 inhibition (OCI-Ly7): U (U=0.7 to <1) | Synergy Score growth inhibition (OCI-Ly7): A3 (A3=>3) | Synergy Score inhibition (OCI-Ly7): A2 (A2=1 to <3) | CI50 growth inhibition (HH): S (S=0.01 to <0.5) | CI50 inhibition (HH): T (T=0.5 to <0.7) | Synergy Score growth inhibition (HH): A3 (A3=>3) | Synergy Score inhibition (HH): A2 (A2=1 to <3) | CI50 growth inhibition (TMD8): U (U=0.7 to <1) | CI50 inhibition (TMD8): U (U=0.7 to <1) | Synergy Score growth inhibition (TMD8): A3 (A3=>3) | Synergy Score inhibition (TMD8): A2 (A2=1 to <3) | CI50 growth inhibition (WSU-NHL): T (T=0.5 to <0.7) | CI50 inhibition (WSU-NHL): T (T=0.5 to <0.7) | Synergy Score growth inhibition (WSU-NHL): A3 (A3=>3) | Synergy Score inhibition (WSU-NHL): A2 (A2=1 to <3) | CI50 growth inhibition (SU-DHL-10-epst): T (T=0.5 to <0.7) | CI50 inhibition (SU-DHL-10-epst): T (T=0.5 to <0.7) | Synergy Score growth inhibition (SU-DHL-10-epst): A3 (A3=>3) | Synergy Score inhibition (SU-DHL-10-epst): A2 (A2=1 to <3) | CI50 growth inhibition (NCI-H929): U (U=0.7 to <1) | CI50 inhibition (NCI-H929): T (T=0.5 to <0.7) | Synergy Score growth inhibition (NCI-H929): A3 (A3=>3) | Synergy Score inhibition (NCI-H929): A2 (A2=1 to <3)
